Assay results: patent US20240374487A1, “ANTI-AGING AGENT, COSMETIC PRODUCT, WET TOWEL, AND HYGIENE PRODUCT” (VB JAPAN TECHNOLOGY CO., LTD., priority 2021, published 2024)

Tests used:
[1] = test system: AQP-1; assay: AQP-1 mRNA level under oxidative stress (qRT-PCR); format: cell-based, human
Protocol: (§1) Normal human dermal fibroblasts were cultured for 2 hours in a culture solution to which 0.2 mM hydrogen peroxide was added, then washed off with PBS, and replaced with a normal medium to continue the cultivation. VB2 and VB3 were each added at any timing before or after hydrogen peroxide was added, and co-cultured for 4 hours. Thereafter, the cells or the culture solution were recovered.
(§2) According to the procedure described in “Measurement of Cell Viability” above, normal human dermal fibroblasts were treated and cultured (co-culture), and cells or the culture solution was recovered. The notation of the sample in FIGS. 8 and 9, which are graphs showing the results, is also the same as in the “Measurement of Cell Viability” described above.
(§3) The measurement of aquaporin was performed for AQP-1 and AQP-3 by a qRT-PCR method, and the measurement result was obtained by a ΔΔCt method. […] The qRT-PCR method is s specifically described in “qRT-PCR method” described later.
(§4) The qRT-PCR method used for the measurement of AGE receptor, heat shock protein, aquaporin, hyaluronic acid, and Elastin will be described. In the qRT-PCR method, 500 ng of the obtained total RNA was used as a template for PCR, and one step RT-PCR capable of performing CDNA synthesis by a reverse transcription reaction (Reverse Transcriptase; RT reaction) and quantitative PCR in one test tube was performed using Luna Universal One-Step qRT-PCR Kit.
(§5) As a PCR device, Thermal Cycler Dice Real Time System II manufactured by Takara was used. As one reaction system, 10 μL of Luna Universal One-Step Reaction Mix (2×), 1 μL of Luna WarmStart RT Enzyme Mix (20×), 0.8 μL of Forward primer (10 μM), 0.8 μL of Reverse primer, and Total RNA as a template for the PCR were used, and the total amount was adjusted to 20 μL in Nuclease-free Water.
(§6) The reaction was performed under the conditions of 1 cycle of 30 seconds at 95° C., and further cycles of 5 seconds at 95° C. and 30 seconds at 60° C. for 50 cycles. A variation in mRNA expression by 4 times or more (2 cycles as PCR reaction) was determined as a significant difference.

[2] = test system: RAGE; assay: RAGE mRNA level by qRT-PCR in AGE-treated fibroblasts; format: cell-based, human; settings: co-existence with AGE 100 μg/mL, 4 hours, compared with AGE single stimulation group
Protocol: (§7) Normal human dermal fibroblasts (NHDF), juvenile foreskin (C-12300, PromoCell) were cultured in a dedicated medium, Fibroblast Growth Medium (C-23010, PromoCell) at 37° C. in a 5% CO2 incubator.
(§8) First, as a co-existence group of VB and AGE, normal human dermal fibroblasts were treated with AGE (100 μg/mL), and the above VB2 (concentration after dilution: 115 μg/ml) and VB3 (concentration after dilution: 1000 μg/mL) diluted to an accurate 1/1000 amount were each added and retained at 37° C. for 4 hours. […]
(§9) Then, total RNA was extracted from the cells using Trizol reagent (Ambion), and mRNA levels of AGE receptor (FEEL-1, FEEL-2, CD-36, AGE-R1, AGE-R2, AGE-R3 and RAGE) and heat shock protein (Hsp104, gp96, Hsp90, Hsp70, Hsp60, and Hsp32) were measured by qRT-PCR (one-step quantitative reverse transcription-polymerase chain reaction) method. […]
as §4, with “Kit. […]” for “Kit.”

[3] = test system: FEEL-1; assay: FEEL-1 mRNA level by qRT-PCR in AGE-treated fibroblasts; format: cell-based, human; settings: co-existence with AGE 100 μg/mL, 4 hours, compared with AGE single stimulation group
Protocol: as §7, §8, §9
as §4, with “Kit. […]” for “Kit.”

[4] = test system: FEEL-2; assay: FEEL-2 mRNA level by qRT-PCR in AGE-treated fibroblasts; format: cell-based, human; settings: co-existence with AGE 100 μg/mL, 4 hours, compared with AGE single stimulation group
Protocol: as §7, §8, §9
as §4, with “Kit. […]” for “Kit.”

[5] = test system: normal human dermal fibroblasts; assay: Cell viability under hydrogen peroxide oxidative stress (Cell counting-8 kit); format: cell-based; settings: for cell viability, trend: 1-300 μg/mL
Protocol: as §7, §1
In FIG. 5 which is a graph showing the results, a sample obtained by adding VB2 or VB3 after adding hydrogen peroxide was denoted as “H2O2-VB2” and “H2O2-VB3”, respectively, and a sample obtained by adding hydrogen peroxide after adding VB2 or VB3 was denoted as “VB2-H2O2” and “VB3-H2O2”, respectively.
Here, VB2 and VB3 were added at concentrations of 1 μg/mL, 10 μg/mL, 100 μg/mL, and 300 μg/mL, respectively.
The normal human dermal fibroblasts to which neither hydrogen peroxide nor VB2 nor VB3 was added were treated in the same manner as described above, and measured as Control. In addition, a sample to which VB2 or VB3 was not added (in FIG. 5, it is denoted as “H2O2”) was also treated in the same manner as described above, and measurement was performed.
The number of surviving cells in normal human dermal fibroblasts was measured using Cell counting −8 kit (DOJINDO: , Japan).

[6] = test system: intracellular ROS; assay: Intracellular ROS production against hydrogen peroxide (DCF-DA); format: cell-based, human
Protocol: (§10) Measurement of intracellular ROS was performed using fluorescence using dichlorofluorescin diacetate (DCF-DA; Invitrogen, Carlsbad, CA, USA). Specifically, cells were washed with PBS, and then incubated with 10 μM DCF-DA at 37° C. for 20 minutes. The intracellular ROS level was measured at an excitation wavelength of 525 nm using fluorescence intensity using the micro plate reader (SYNERGY/HT, BioTek, Japan).
as §1
According to the procedure described in “Measurement of Cell Viability” above, normal human dermal fibroblasts were treated and cultured (co-culture), and cells or the culture solution was recovered. The concentrations of VB2 and VB3 used and the notation of the samples in FIGS. 6 and 7, which are graphs showing the results, are also similar to the above “Measurement of Cell Viability”.
The measurement of intracellular ROS and the measurement of superoxide (SOD) were performed by the same methods as the methods described in “Measurement of Intracellular Reactive Oxygen (ROS) Production and Superoxide (SOD) against AGE” above, respectively.
FIGS. 6 and 7 show the results of each sample when Control is 100%.

[7] = test system: intracellular ROS; assay: Intracellular ROS against AGE (DCF-DA fluorescence); format: cell-based, human; settings: AGE 100 μg/mL, 4 hours, FIG. 3
Protocol: as §7
Normal human dermal fibroblasts were treated with AGE (100 μg/mL) and maintained at 37° C. for 4 hours with the addition of VB2 and VB3, respectively. Here, VB2 and VB3 were added at concentrations of 1 μg/mL, 10 μg/mL, 100 μg/mL, and 300 μg/mL, respectively. In FIGS. 3 and 4, which are graphs showing the results, those to which VB2was added were denoted as “VB2-AGE”, and those to which VB3 was added were denoted as “VB3-AGE”.
As Control, measurement was also performed on normal human dermal fibroblasts which were not treated with AGE and were held at 37° C. for 4 hours without addition of VB2 or VB3, and as an AGE single stimulation group, measurement was also performed on normal human dermal fibroblasts which were treated with AGE (100 μg/mL) and were held at 37° C. for 4 hours without addition of VB2 or VB3 (in FIGS. 3 and 4, it is denoted as “AGE”.).
as §10, with “Specifically, cells were washed with PBS, and then incubated with 10 μM DCF-DA at 37° C. for 20 minutes.” left out

[8] = test system: hyaluronic acid; assay: Hyaluronic acid secreted into culture supernatant (ELISA); format: cell-based, human
Protocol: as §1
(§11) According to the procedure described in “Measurement of Cell Viability” above, normal human dermal fibroblasts were treated and cultured (co-culture), and cells or the culture solution was recovered. The concentrations of VB2 and VB3 used and the notation of the samples in FIGS. 10 and 11, which are graphs showing the results, are also similar to the above “Measurement of Cell Viability”.
(§12) The production amounts of hyaluronic acid and Elastin were measured by an ELISA method. The results of measuring the amount of hyaluronic acid secreted from normal human dermal fibroblasts into the culture supernatant by the ELISA method are shown in FIG. 10, and the results of measuring the amount of intracellular Elastin production by the ELISA method are shown in FIG. 11.

[9] = test system: AGE receptor (FEEL-1, FEEL-2, CD-36, AGE-R1, AGE-R2, AGE-R3 and RAGE); assay: mRNA levels of AGE receptors by qRT-PCR in normal human dermal fibroblasts; format: cell-based; settings: VB alone, no AGE, 37° C. 4 hours, compared with untreated group
Protocol: as §7, §8, §9
as §4, with “Kit. […]” for “Kit.”

[10] = test system: SOD; assay: SOD amount against hydrogen peroxide (SOD Assay Kit); format: cell-based, human; settings: added before and after 0.2 mM hydrogen peroxide, 1-300 μg/mL (H2O2 only 56% of Control)
Protocol: Superoxide (SOD) was measured using SOD Assay Kit (Cayman Chemical, Ann arbor, MI, USA). Cells that had been subjected to various treatments were incubated for 24 hours, and then a Lysis buffer was added, homogenized, and centrifuged. Then, 10 μL of each sample was mixed with 200 μL of xanthine oxidase at room temperature. After 30 minutes, the absorbance at 450 nm was measured.
as §1
According to the procedure described in “Measurement of Cell Viability” above, normal human dermal fibroblasts were treated and cultured (co-culture), and cells or the culture solution was recovered. The concentrations of VB2 and VB3 used and the notation of the samples in FIGS. 6 and 7, which are graphs showing the results, are also similar to the above “Measurement of Cell Viability”. […]

[11] = test system: heat shock protein (Hsp104, gp96, Hsp90, Hsp70, Hsp60, and Hsp32); assay: mRNA levels of heat shock proteins by qRT-PCR in fibroblasts; format: cell-based, human; settings: 4 hours
Protocol: as §7
First, as a co-existence group of VB and AGE, normal human dermal fibroblasts were treated with AGE (100 μg/mL), and the above VB2 (concentration after dilution: 115 μg/ml) and VB3 (concentration after dilution: 1000 μg/mL) diluted to an accurate 1/1000 amount were each added and retained at 37° C. for 4 hours.
In addition, as the VB single stimulation group, normal human dermal fibroblasts were not treated with AGE, and the above VB2 and VB3 diluted to an accurate 1/1000 amount were each added and held at 37° C. for 4 hours. Furthermore, as the AGE single stimulation group, normal human dermal fibroblasts were treated with AGE and kept at 37° C. for 4 hours without addition of VB2 or VB3. In addition, as an untreated group, normal human dermal fibroblasts were not treated with AGE, and were kept at 37° C. for 4 hours without adding VB2 or VB3.
Then, total RNA was extracted from the cells using Trizol reagent (Ambion), and mRNA levels of AGE receptor (FEEL-1, FEEL-2, CD-36, AGE-R1, AGE-R2, AGE-R3 and RAGE) and heat shock protein (Hsp104, gp96, Hsp90, Hsp70, Hsp60, and Hsp32) were measured by qRT-PCR (one-step quantitative reverse transcription-polymerase chain reaction) method.
The measurement results for AGE receptor are shown in FIG. 1, and the measurement results for heat shock protein are shown in FIG. 2. In FIG. 1 and FIG. 2, for the co-existence group of AGE and VB, samples to which VB2 and VB3 were added are indicated as VB2(+)AGE and VB3(+)AGE, respectively, and these values were shown in comparison with the AGE single stimulation group. In addition, for the VB single stimulation group, samples to which VB2 and VB3 were added were indicated as VB2 alone and VB3 alone, respectively, and these values were shown in comparison with the untreated group.
as §4
As a PCR device, Thermal Cycler Dice Real Time System II manufactured by Takara was used. […]
as §6

[12] = test system: Elastin; assay: Intracellular Elastin production (ELISA); format: cell-based, human
Protocol: as §1, §11, §12

[13] = test system: AQP-3; assay: AQP-3 mRNA level under oxidative stress (qRT-PCR); format: cell-based, human
Protocol: as §1, §2, §3, §4, §5, §6

[14] = added before or after 0.2 mM hydrogen peroxide
[15] = added in advance before oxidative stress, compared with addition after
[16] = added in advance before applying oxidative stress

Substance: K11H[(VO)3(SbW9O33)2] [VB2]
- mRNA level of AQP-1 [1, 14]: increased
- AQP-1 mRNA repair ability, addition before vs after oxidative stress [1, 15]: tended to have a stronger repair ability
- mRNA level of RAGE [2]: significantly increased
- mRNA level of FEEL-1 [3]: significantly increased
- mRNA level of FEEL-2 [4]: significantly increased
- maximum cell viability ([5]; added after 0.2 mM hydrogen peroxide, 300 μg/mL, % of Control (H2O2 only 59%)): 76%
- cell viability, trend ([5]; added after 0.2 mM hydrogen peroxide): increased in a concentration-dependent manner
- cell viability, trend ([5]; added in advance before 0.2 mM hydrogen peroxide): significant increase in a concentration-dependent manner
- ROS production ([6]; added before and after 0.2 mM hydrogen peroxide, 1-300 μg/mL): suppressed in a concentration-dependent manner
- ROS production ([6]; treatment in advance before oxidative stress, compared with addition after): further suppressed
- intracellular ROS under AGE stimulation [7]: suppress the increase in ROS
- amount of hyaluronic acid ([8]; 0.2 mM hydrogen peroxide oxidative stress, culture supernatant): tended to be recovered
- hyaluronic acid repair ability, addition before vs after oxidative stress [8, 15]: tended to have a stronger repair ability
- mRNA expression of AGE receptor [9]: did not affect
- SOD amount [10]: tended to be recovered in a concentration-dependent manner
- mRNA expression of Hsp ([11]; VB alone, no AGE, compared with untreated group): did not affect
- mRNA levels of all Hsps other Hsp 90 among the examined Hsps ([11]; co-existence with AGE 100 μg/mL, compared with AGE single stimulation group): significantly increased
- Elastin production amount ([12]; added after application of oxidative stress (H2O2 only 56% of Control)): could not be recovered
- Elastin production amount [12, 16]: significant recovery
- concentration at which Elastin production amount was significantly higher than Control [12, 16]: ≥ 100 µg/mL
- mRNA level of AQP-3 [13, 14]: increased
- AQP-3 mRNA repair ability, addition before vs after oxidative stress [13, 15]: tended to have a stronger repair ability
